System: spontaneously hypertensive rats (SHRs)
Assay: Systolic blood pressure by the tail-cuff method in spontaneously hypertensive rats, oral administration once daily for 29 days
Assay type: in vivo, rat
Conditions: for Systolic blood pressure compared with the 1st (vehicle) group: 5 mg/kg (2nd group), from Day 8 to the end of the test period; for Systolic blood pressure: male SHR/Izm rats, mean ± standard error, n=6
Protocol: The rats used were spontaneously hypertensive rats (SHRs). The systolic blood pressure levels of 18 male SHR/Izm rats (10 week olds; Japan SLC, Inc.) were measured on Day 1 of administration. The rats were divided into 3 groups of 6 rats in a manner such that the mean values of the groups were almost equivalent to one another. The groups were referred to as the 1st to the 3rd groups. A 0.5 w/v % methylcellulose aqueous solution was orally administered to the rats in the 1st group. A 0.5 w/v % methylcellulose aqueous solution containing pyrroloquinoline quinone disodium salt (hereinafter, referred to as PQQ disodium salt; Mitsubishi Gas Chemical Company, Inc.) suspended therein (1 mg/mL) was orally administered to the rats in the 2nd group. A 0.5 w/v % methylcellulose aqueous solution containing PQQ disodium salt suspended therein (4 mg/mL) was orally administered to the rats in the 3rd group. Oral administration was carried out in a volume of 5 mL/kg once daily for 29 days. The single dose of PQQ disodium salt was 5 mg/kg in the 2nd group and the same was 20 mg/kg in the 3rd group. On Days 1, 8, 15, 22, and 29 of administration, systolic blood pressure was measured before administration (24 hours after administration on the previous day) and 4 hours after administration of the PQQ disodium salt. Systolic blood pressure was measured by the tail-cuff method with the use of an unheated non-invasive blood pressure monitor for mice and rats (MK-2000, Muromachi Kikai Co., Ltd.). Measurement was carried out 5 times per instance. The mean value of three systolic blood pressure values obtained by excluding the highest value and the lowest value was determined to be the value for an individual rat. The value for each group was expressed as the mean value±standard error (n=6). A statistically significant difference was obtained at each measurement point by carrying out one-way analysis of variance. When the significance was confirmed by one-way analysis of variance, a parametric Dunnett's multiple comparison test was carried so that a significant difference between the 2nd and the 1st group and between the 3rd group and the 1st group were obtained. In addition, in a case in which there was a significance level (p value) of less than 0.05, it was determined that there was a significant difference.

Structure (SMILES): O=C(O)c1cc(C(=O)O)c2c(n1)C(=O)C(=O)c1cc(C(=O)O)[nH]c1-2.[Na].[Na] [PQQ disodium salt, pyrroloquinoline quinone disodium salt]
- Systolic blood pressure compared with the 1st (vehicle) group (4 hours after administration): lower than that for the 1st group
- Systolic blood pressure compared with the 1st (vehicle) group (before administration): lower than that for the 1st group
- Systolic blood pressure compared with the 2nd (5 mg/kg) group (20 mg/kg (3rd group), 4 hours after administration): lower than that for the 2nd group
- Systolic blood pressure compared with the 1st (vehicle) group, significance (20 mg/kg (3rd group), 4 hours after administration on Day 29, Dunnett's test, p < 0.05): significantly lower than that for the 1st group
- Systolic blood pressure compared with the 2nd (5 mg/kg) group (20 mg/kg (3rd group), before administration): lower than that for the 2nd group
- Hypertension-ameliorating effect in hypertension rats (overall conclusion) (SHR rats, 5 and 20 mg/kg oral once daily for 29 days): blood pressure-reducing effects, namely, hypertension-ameliorating effects, were observed
- Systolic blood pressure (5 mg/kg oral once daily (2nd group), Day 1, 4 hours after administration): 172 ± 4 mmHg
- Systolic blood pressure (5 mg/kg oral once daily (2nd group), Day 1, before administration (baseline)): 172 ± 3 mmHg
- Systolic blood pressure (5 mg/kg oral once daily (2nd group), Day 8, 4 hours after administration): 175 ± 3 mmHg
- Systolic blood pressure (5 mg/kg oral once daily (2nd group), Day 8, before administration (24 hours after previous dose)): 177 ± 3 mmHg
- Systolic blood pressure (5 mg/kg oral once daily (2nd group), Day 15, 4 hours after administration): 184 ± 3 mmHg
- Systolic blood pressure (5 mg/kg oral once daily (2nd group), Day 15, before administration (24 hours after previous dose)): 185 ± 3 mmHg
- Systolic blood pressure (5 mg/kg oral once daily (2nd group), Day 22, 4 hours after administration): 189 ± 3 mmHg
- Systolic blood pressure (5 mg/kg oral once daily (2nd group), Day 22, before administration (24 hours after previous dose)): 189 ± 3 mmHg
- Systolic blood pressure (5 mg/kg oral once daily (2nd group), Day 29, 4 hours after administration): 190 ± 1 mmHg
- Systolic blood pressure (5 mg/kg oral once daily (2nd group), Day 29, before administration (24 hours after previous dose)): 190 ± 1 mmHg
- Systolic blood pressure (20 mg/kg oral once daily (3rd group), Day 1, 4 hours after administration): 171 ± 3 mmHg
- Systolic blood pressure (20 mg/kg oral once daily (3rd group), Day 1, before administration (baseline)): 172 ± 3 mmHg
- Systolic blood pressure (20 mg/kg oral once daily (3rd group), Day 8, 4 hours after administration): 171 ± 2 mmHg
- Systolic blood pressure (20 mg/kg oral once daily (3rd group), Day 8, before administration (24 hours after previous dose)): 174 ± 2 mmHg
- Systolic blood pressure (20 mg/kg oral once daily (3rd group), Day 15, 4 hours after administration): 180 ± 3 mmHg
- Systolic blood pressure (20 mg/kg oral once daily (3rd group), Day 15, before administration (24 hours after previous dose)): 182 ± 3 mmHg
- Systolic blood pressure (20 mg/kg oral once daily (3rd group), Day 22, 4 hours after administration): 184 ± 3 mmHg
- Systolic blood pressure (20 mg/kg oral once daily (3rd group), Day 22, before administration (24 hours after previous dose)): 184 ± 3 mmHg
- Systolic blood pressure (20 mg/kg oral once daily (3rd group), Day 29, 4 hours after administration, p < 0.05 relative to the 1st (vehicle) group): 184 ± 3 mmHg
- Systolic blood pressure (20 mg/kg oral once daily (3rd group), Day 29, before administration (24 hours after previous dose)): 186 ± 3 mmHg
